# Measurements as given in publication PMC8788145 (Journal of medicinal chemistry, 2017).
# “And” between values parts separate entries of the source, which are not always exact repeats. Equal entries are not always repeated.
# Key:
# Format in all cases: biochemical
# human plasmin [1] = target: T1, human plasmin (Homo sapiens, UniProt P00747); experiment: Direct inhibition of human plasmin, chromogenic substrate; conditions: for HS (Hill slope): Tris-HCl buffer pH 7.4, 37 °C
# human plasmin [2] = target: T1, human plasmin; experiment: Michaelis-Menten kinetics of Spectrozyme PL hydrolysis by human plasmin
# human plasmin [3] = target: T1, human plasmin; experiment: Protamine reversibility of plasmin inhibition by NSGM 2; conditions: plasmin treated with inhibitor 2 (200 μM), pH 7.4, 37 °C
# T1 sequence (P00747 97-580 limits assumed): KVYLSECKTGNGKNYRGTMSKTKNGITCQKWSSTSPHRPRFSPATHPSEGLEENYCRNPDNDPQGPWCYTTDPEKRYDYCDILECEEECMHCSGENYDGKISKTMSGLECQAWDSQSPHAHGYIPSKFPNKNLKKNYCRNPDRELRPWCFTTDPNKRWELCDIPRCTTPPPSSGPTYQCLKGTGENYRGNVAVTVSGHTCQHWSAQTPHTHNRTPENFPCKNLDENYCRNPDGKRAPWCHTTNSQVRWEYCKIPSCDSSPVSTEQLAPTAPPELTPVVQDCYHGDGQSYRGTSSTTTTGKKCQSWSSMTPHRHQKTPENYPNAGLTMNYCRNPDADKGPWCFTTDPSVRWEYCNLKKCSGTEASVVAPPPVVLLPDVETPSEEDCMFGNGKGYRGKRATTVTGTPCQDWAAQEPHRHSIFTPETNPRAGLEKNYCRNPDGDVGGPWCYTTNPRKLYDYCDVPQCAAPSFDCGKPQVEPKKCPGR
# T1 sequence (P00747 581-810 limits assumed): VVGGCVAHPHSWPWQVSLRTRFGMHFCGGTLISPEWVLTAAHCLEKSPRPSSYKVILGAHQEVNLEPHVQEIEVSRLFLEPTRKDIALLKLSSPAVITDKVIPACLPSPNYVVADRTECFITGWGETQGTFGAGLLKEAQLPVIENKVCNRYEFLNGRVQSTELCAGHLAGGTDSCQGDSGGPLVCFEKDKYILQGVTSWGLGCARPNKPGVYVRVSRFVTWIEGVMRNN
compound,measurement,setting,value
O=c1c(OS(=O)(=O)[O-])c(-c2ccc(OS(=O)(=O)[O-])c(OS(=O)(=O)[O-])c2)oc2cc(OS(=O)(=O)[O-])cc(OCc3ccc(COc4cc(OS(=O)(=O)[O-])cc5oc(-c6ccc(OS(=O)(=O)[O-])c(OS(=O)(=O)[O-])c6)c(OS(=O)(=O)[O-])c(=O)c45)cc3)c12.[Na+].[Na+].[Na+].[Na+].[Na+].[Na+].[Na+].[Na+],HS (Hill slope),human plasmin [1],0.7 ± 0.1
same,VMAX,"human plasmin [2]; [inhibitor] 1.6 μM, pH 7.4, 37 °C",36.3 ± 2.0 mAU/min
same,VMAX,human plasmin [2]; [inhibitor] 8 μM,29.0 ± 0.6 mAU/min
same,VMAX,human plasmin [2]; [inhibitor] 100 μM,15.1 ± 1.0 mAU/min
same,VMAX,"human plasmin [2]; [inhibitor] 200 μM, listed as 2",10.4 mAU/min and 10.4 ± 0.5 mAU/min
"O=c1c(O)c(-c2ccc(O)c(O)c2)oc2cc(O)cc(OCc3ccc(COc4cc(O)cc5oc(-c6ccc(O)c(O)c6)c(O)c(=O)c45)cc3)c12 [1j, 5,5′-((1,4-Phenylenebis(methylene))bis(oxy))bis(2-(3,4-dihydroxyphenyl)-3,7-dihydroxy-4H-chromen-4-one)]",fold less potent plasmin inhibition than NSGM 2,human plasmin [1]; 1j versus 2,about 18.3 fold
same,VMAX,human plasmin [2]; [inhibitor] 100 μM,51.0 ± 4.6 mAU/min
same,VMAX,human plasmin [2]; [inhibitor] 240 μM,51.7 ± 3.9 mAU/min
same,VMAX,human plasmin [2]; [inhibitor] 400 μM,51.3 ± 4.0 mAU/min
same,mechanism of plasmin inhibition,human plasmin [2]; from Michaelis-Menten kinetics,competitive
same,fold increase in KM,human plasmin [2]; inhibitor concentration reaching 400 μM,~ 13.5 fold
same,VMAX across inhibitor concentrations,"human plasmin [2]; inhibitor concentration reaching 400 μM, essentially unchanged",50.6–51.3 mAU/min
protamine,efficacy of restoring plasmin activity,human plasmin [3],~ 100%
"O=c1c(OS(=O)(=O)[O-])c(-c2ccc(OS(=O)(=O)[O-])c(OS(=O)(=O)[O-])c2)oc2cc(OS(=O)(=O)[O-])cc(OCc3cccc(COc4cc(OS(=O)(=O)[O-])cc5oc(-c6ccc(OS(=O)(=O)[O-])c(OS(=O)(=O)[O-])c6)c(OS(=O)(=O)[O-])c(=O)c45)c3)c12.[Na+].[Na+].[Na+].[Na+].[Na+].[Na+].[Na+].[Na+] [NSGM 5, Sodium 4-(5-((3-(((2-(3,4-Bis(sulfonatooxy)phenyl)-4-oxo-3,7-bis(sulfonatooxy)-4H-chromen-5-yl)oxy)methyl)benzyl)-oxy)-4-oxo-3,7-bis(sulfonatooxy)-4H-chromen-2-yl)-1,2-phenylene Bis(sulfate)]",HS (Hill slope),human plasmin [1],0.6 ± 0.1
"O=c1cc(-c2ccc(OS(=O)(=O)[O-])cc2)oc2cc(OS(=O)(=O)[O-])cc(OCCCCOc3cc(OS(=O)(=O)[O-])cc4oc(-c5ccc(OS(=O)(=O)[O-])cc5)cc(=O)c34)c12.[Na+].[Na+].[Na+].[Na+] [NSGM 9, Sodium 4-Oxo-5-(4-((4-oxo-7-(sulfonatooxy)-2-(4-(sulfonatooxy)phenyl)-4H-chromen-5-yl)oxy)butoxy)-2-(4-(sulfonatooxy)phenyl)-4H-chromen-7-yl Sulfate]",HS (Hill slope),human plasmin [1],1.8 ± 0.3
